Structures are written as SMILES.

Common to all, as to assay: Inhibition of proliferation (cell viability)
Common to all, as to assay type: cell-based
Holding throughout (conditions): Homo sapiens

The subject of assay [1] is CSCs-5 patient-derived glioblastoma stem cell line. Here is the method:
(§1) Thirteen human glioma cell lines (U251, U373, SNB19, U118, U138, U87MG, A172, LN229, LN19, SW1783, T98G, SF-268, and D54) were cultured at 37°C in 5% CO2 and were maintained in Dulbecco’s modified Eagle medium (DMEM) containing 10% (v/v) fetal bovine serum, 4 mM glutamine, 100 IU/mL penicillin, 100 μg/mL streptomycin, and 1% nonessential amino acid (Invitrogen Life Technologies, Inc., Rockville, MD, USA). To minimize the risk of working with misidentified and/or contaminated cell lines, the cells used in studies reported here were stocked at very low passages after initial receipt from the vendor to reduce the possibility of contaminated cell line stocks and used at < 20 subcultures. Periodically, DNA profiling by GenePrint® 10 System (Promega Corporation, Madison, WI, USA) was carried out to authenticate cell cultures. Luciferase-transfected U251 cells were kindly provided by Jari E. Heikkila, department of Biochemistry and Pharmacy, Abo Akademi University, Turku, Finland. […] These non-commercially available, patient-derived cells were analyzed using short tandem repeat profiles. The expression of MGMT, p53, and PTEN was detected in western blots with antibodies from Santa Cruz against MGMT (sc166528), wt p53 (sc-100), total p53 (sc-126), and PTEN (sc-7974).
(§2) Cells were seeded at a density of 2 × 10^4 cells/mL in 24-well plates. […] At the conclusion of the treatment period, cells were trypsinized and resuspended in 1.0 mL of saline; viable cells were counted using the NucleoCounter™ NC-100 (Chemotec, Cydevang, Denmark). […] IC50 values were calculated using GraFit (Erithacus Software Limited, Staines, UK).

Assay [2] concerns CSCs-7 patient-derived glioblastoma stem cell line. As for the experimental part: as §1, §2
Assay [3] has as its system BT12M patient-derived glioblastoma stem cell line. As for the experimental part:
as §1, §2

With `CN[C@H]1CN(c2ccc3c(=O)c(C(=O)O)cn(-c4nccs4)c3n2)C[C@@H]1OC` [vosaroxin], the results for the half-inhibitory concentration (IC50) in assay [1], in assay [2] and in assay [3] were 85.4 ± 7.8 nM, 125 ± 15.4 nM and 44.3 ± 5.5 nM, respectively.

(Values after publication PMC5444710, “Enhancement of radiosensitivity by the novel anticancer quinolone derivative vosaroxin in preclinical glioblastoma models” (Oncotarget, 2017).)
